# Reference: the supplement of paper PMC10307832
# Legend:
# Assay in all cases: relative viability (nuclei count vs DMSO), 5 days (fraction); higher = more cells survive
# Halofuginone + Foretinib = compound: O=C(C[C@H]1NCCC[C@@H]1O)Cn1cnc2cc(Br)c(Cl)cc2c1=O (racemic) [Halofuginone] + COc1cc2c(Oc3ccc(NC(=O)C4(C(=O)Nc5ccc(F)cc5)CC4)cc3F)ccnc2cc1OCCCN1CCOCC1 [Foretinib] (partner 0.25 µM)
# Procedure, shortened: (§1)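 Lung cancer cell lines in 1536-well plates got either a single drug or a fixed anchor-drug dose together with five library-drug doses (not always all listed) in √10 steps, by pin tool, on the day after seeding. Nuclei were counted after 5 days, and relative viability is the treated-to-vehicle ratio of nuclei counts. Values are medians of duplicate plates.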
# Cediranib + Linsitinib = compound: COc1cc2c(Oc3ccc4[nH]c(C)cc4c3F)ncnc2cc1OCCCN1CCCC1 [Cediranib] + C[C@]1(O)C[C@@H](c2nc(-c3ccc4ccc(-c5ccccc5)nc4c3)c3c(N)nccn32)C1 [Linsitinib] (partner 1 µM)
# Procedure, shortened: as §1
# Halofuginone + Alpelisib = compound: O=C(C[C@H]1NCCC[C@@H]1O)Cn1cnc2cc(Br)c(Cl)cc2c1=O (racemic) [Halofuginone] + Cc1nc(NC(=O)N2CCC[C@H]2C(N)=O)sc1-c1ccnc(C(C)(C)C(F)(F)F)c1 [Alpelisib] (partner 2 µM)
# Procedure, shortened: as §1
# Cediranib + Olaparib = compound: COc1cc2c(Oc3ccc4[nH]c(C)cc4c3F)ncnc2cc1OCCCN1CCCC1 [Cediranib] + O=C(c1cc(Cc2n[nH]c(=O)c3ccccc23)ccc1F)N1CCN(C(=O)C2CC2)CC1 [Olaparib] (partner 8 µM)
# Procedure, shortened: as §1
Cell Line,relative viability (Halofuginone + Foretinib; first compound 0.001 µM),relative viability (Halofuginone + Foretinib; first compound 0.003162 µM),relative viability (Halofuginone + Foretinib; first compound 0.01 µM),relative viability (Halofuginone + Foretinib; first compound 0.03162 µM),relative viability (Halofuginone + Foretinib; first compound 0.1 µM),relative viability (Cediranib + Linsitinib; first compound 0.04 µM),relative viability (Cediranib + Linsitinib; first compound 0.1265 µM),relative viability (Cediranib + Linsitinib; first compound 0.4 µM),relative viability (Cediranib + Linsitinib; first compound 1.265 µM),relative viability (Cediranib + Linsitinib; first compound 4 µM),relative viability (Halofuginone + Alpelisib; first compound 0.001 µM),relative viability (Halofuginone + Alpelisib; first compound 0.003162 µM),relative viability (Halofuginone + Alpelisib; first compound 0.01 µM),relative viability (Halofuginone + Alpelisib; first compound 0.03162 µM),relative viability (Halofuginone + Alpelisib; first compound 0.1 µM),relative viability (Cediranib + Olaparib; first compound 0.04 µM),relative viability (Cediranib + Olaparib; first compound 0.1265 µM),relative viability (Cediranib + Olaparib; first compound 0.4 µM),relative viability (Cediranib + Olaparib; first compound 1.265 µM),relative viability (Cediranib + Olaparib; first compound 4 µM)
NCI-H1437,1.31,1.26,1.22,1.2,1.21,1.09,0.987,0.951,1.04,1.01,0.996,0.957,0.979,0.673,0.294,0.662,0.614,0.615,0.599,0.627
NCI-H1651,0.91,0.814,0.696,0.519,0.416,0.888,1.11,0.991,0.95,1.04,0.906,0.9,0.889,0.66,0.278,0.189,0.18,0.179,0.166,0.185
NCI-H1666,0.979,0.934,1.01,0.952,0.936,0.865,0.903,0.729,0.885,0.877,0.936,0.791,0.857,0.92,0.607,0.737,0.716,0.719,0.696,0.726
NCI-H1703,0.301,0.295,0.363,0.294,0.337,0.458,0.452,0.372,0.26,0.183,0.334,0.398,0.239,0.27,0.165,0.389,0.388,0.173,0.163,0.243
NCI-H1734,0.961,0.809,0.831,0.751,0.485,0.932,0.847,0.928,0.776,1,0.685,0.679,0.674,0.612,0.452,0.683,0.623,0.59,0.676,0.764
NCI-H1755,0.943,0.955,0.861,0.895,0.877,0.997,1.06,0.967,0.972,1.03,0.866,0.937,0.891,0.923,0.588,0.918,0.791,0.867,0.836,0.955
NCI-H1793,0.814,0.74,0.538,0.67,0.429,0.903,0.935,0.747,–,0.968,0.687,0.666,0.623,0.722,0.396,0.953,1.07,0.762,0.718,1.13
NCI-H1915,1.12,1.16,1.07,1.03,0.97,1.09,1.01,1.07,1.04,1.16,1.08,1.11,1.05,0.921,0.929,0.246,0.251,0.263,0.289,0.249
NCI-H1944,0.865,0.89,0.853,0.899,0.561,1.38,1.45,1.14,1.02,1.12,0.829,0.85,0.827,0.839,0.68,0.391,0.394,0.395,0.407,0.376
NCI-H1975,0.945,1.04,0.796,0.79,0.251,1.1,1.16,1,0.955,0.928,0.684,0.674,0.719,0.302,0.115,0.841,0.752,0.768,0.773,0.773
NCI-H1993,0.911,0.749,0.727,0.772,0.734,0.774,0.751,0.701,0.648,0.818,0.696,0.677,0.664,0.711,0.57,–,0.933,0.847,1.1,1.09
NCI-H2009,1.21,1.23,1.13,1.18,0.775,1.2,1.18,1.18,1.19,1.16,1.23,1.2,1.12,0.969,0.393,0.637,0.698,0.676,0.694,0.669
NCI-H2023,1.11,0.636,0.826,0.288,0.139,0.656,0.641,0.638,0.588,0.765,0.645,0.624,0.519,0.281,0.147,0.511,0.445,0.47,0.445,0.527
NCI-H2085,0.935,0.937,0.974,1.22,0.59,1.01,0.941,0.898,0.872,0.926,0.901,0.98,0.943,0.873,0.623,0.737,0.729,0.745,0.8,0.746
NCI-H2087,1.28,1.14,1.04,1.29,0.331,0.995,1.03,0.921,0.843,0.959,1.12,0.98,1.14,0.935,0.612,0.609,0.62,0.575,0.567,0.708
NCI-H2126,1.28,1.19,1.16,1.17,0.947,0.769,0.708,0.683,0.592,0.722,0.71,0.74,0.696,0.734,0.698,0.944,0.92,0.912,0.802,0.957
